For one assay, the system named is Vasopressin V2. In words: Vasopressin V2 Antagonist Activity in Conscious Hydrated Rats. The class given is in vivo, rat. Particulars: AVP 0.4 μg/kg i.p. As to the method:
Vasopressin V2 Antagonist Activity in conscious Hydrated Rats Conscious hydrated rats are treated with compounds under study from 0.1 to 100 mg/kg orally or vehicle. Two to four rats are used for each compound. One hour later, arginine vasopressin (AVP, antidiuretic hormone, ADH) dissolved in peanut oil is administered at 0.4 μg/kg intraperitoneally. Two rats in each test would not receive arginine vasopressin but only the vehicle (peanut oil) to serve as water-loading control. Twenty minutes later each rat is given 30 mL/kg of deionized water orally by gavage and is placed individually in a metabolic cage equipped with a funnel and a graduated glass cylinder to collect urine for four hours. Urine volume is measured and osmolality analyzed by use of a Fiske One-Ten osmometer (Fiske Assoc., Norwood, Mass. USA). Urinary sodium, potassium, and chloride are analyzed by use of ion-specific electrodes in a Beckman E3 (Electrolyte 3) Analyzer. In the following results, […] and […] osmolality relative to AVP-control indicates activity.

The test system of the next assay is Vasopressin V1. In words: Vasopressin V1 Antagonist Activity in Conscious Rats (vasopressin vasopressor response). The assay is classed as in vivo, rat. Particulars: for inhibition in vivo at 10 mg/kg / inhibition in vivo at 20 mg/kg / inhibition in vivo at 30 mg/kg: Rattus norvegicus, read-out: Vasopressin vasopressor response, Max. % Inhibition. As to the method: Vasopressin V1 Antagonist Activity in Conscious Rats Conscious rats are restrained in a supine position with elastic tape. The area at the base of the tail is locally anesthetization by subcutaneous infiltration with 2% procaine (0.2 ml). Using aseptic technique the ventral caudal tail artery is isolated and a cannula made of PE 10 and 20 (heat-fused) tubing is passed into the lower abdominal aorta. The cannula is secured, heparinized (1000 i.u./cc), sealed and the would closed with one or two stitches of Dexon 4-0. The caudal vein is also cannulated in the same manner for intravenous drug administration. The duration of the surgery is approximately 5 minutes. Additional local anesthesia (2% procaine or lidocaine) is provided as needed. The animals are placed in plastic restraining cages in an upright position. The cannula is attached to a […] pressure transducer and pulsatile blood pressure is recorded. […] Percentage of antagonism by the compound is calculated using the pre-drug vasopressin vasopressor response as 100%.

For a further assay, the target named is T1, oxytocin receptors (Rattus norvegicus, UniProt P70536).
T1 construct: The uteri are dissected out, cleaned of fat and connective tissues; from tissue; host or cells: uterus membranes of DES-treated female Sprague-Dawley rats
T1 sequence (P70536 1-388): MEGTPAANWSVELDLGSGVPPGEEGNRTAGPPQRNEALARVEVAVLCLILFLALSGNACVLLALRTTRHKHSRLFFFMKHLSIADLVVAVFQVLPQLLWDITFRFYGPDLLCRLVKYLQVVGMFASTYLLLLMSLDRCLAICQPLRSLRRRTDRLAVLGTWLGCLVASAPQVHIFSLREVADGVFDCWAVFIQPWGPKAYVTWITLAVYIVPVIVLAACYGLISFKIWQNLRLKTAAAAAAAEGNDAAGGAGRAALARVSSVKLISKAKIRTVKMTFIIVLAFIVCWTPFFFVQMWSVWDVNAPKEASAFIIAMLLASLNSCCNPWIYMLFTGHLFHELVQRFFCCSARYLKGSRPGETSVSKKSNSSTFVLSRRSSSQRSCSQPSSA
In words: Oxytocin Receptor Binding. Set-up: species or system Sprague-Dawley rats. As to conditions: for IC50: 1.0 nM [3H]oxytocin. Summed up:
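Membranes from uteri of DES-primed (0.3 mg/kg i.m., 18 h) female Sprague-Dawley rats incubated 60 min at 22 °C with 1.0 nM [3H]oxytocin in 50 mM Tris.HCl pH 7.4, 5 mM MgCl2 plus protease inhibitors; nonspecific binding with 1.0 uM oxytocin. IC50 from displacement after filtration.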

Molecules are shown by their SMILES. Like-named read-outs stand apart in the source and are kept apart here.

One may read the IC50 as the concentration at which inhibition is half-maximal. Higher therefore signals a need for much substance. The term inhibition denotes the relative decrease from the control value, in per cent.

Regarding `Cc1ccccc1C(=O)Nc1ccc(C(=O)N2CCCCc3sc(Cl)cc32)cc1` [Example 96, N-[4-[(2-Chloro-5,6,7,8-tetrahydro-4H-thieno[3,2-b]azepin-4-yl)carbonyl]phenyl]-2-methylbenzamide], in the assay on Vasopressin V2 (30 mg/kg P.O.), the Osmolality is listed as 465 mOsm/kg and the “Urine Volume” value is 16.1 ml/4 hours. In the assay on Vasopressin V1 (10 mg/kg iv), the “Time (Min) of Max. % Inhibition” value came to 90 min and the inhibition in vivo at 10 mg/kg was determined as 65%. Also, the half-inhibitory concentration (IC50) at oxytocin receptors was 0.27 µM. On oxytocin receptors (1.25 μM), at 1.25 µM the inhibition was 58%.
For `Cc1c(F)cccc1C(=O)Nc1ccc(C(=O)N2CCCC(=O)c3sccc32)cc1` [Example 155, N-[4-[(5,6,7,8-Tetrahydro-8-oxo-4H-thieno[3,2-b]azepine-4-yl)carbonyl]phenyl]-3-fluoro-2-methylbenzamide], in the assay with Vasopressin V2 (10 mg/kg P.O.), the Osmolality was 1053 mOsm/kg and the “Urine Volume” value is on record as 4.5 ml/4 hours. Besides, in the assay with Vasopressin V1 (20 mg/kg iv), the “Time (Min) of Max. % Inhibition” value came out at 60 min and the inhibition in vivo at 20 mg/kg is 62%. Moreover, at 10 µM the inhibition on oxytocin receptors was 16%.
On to `Cc1ccc(F)cc1C(=O)Nc1ccc(C(=O)N2CCCCc3sccc32)c(Cl)c1` [Example 70, N-[4-[(5,6,7,8-Tetrahydro-4H-thieno[3,2-b]azepin-4-yl)carbonyl]-3-chlorophenyl]-5-fluoro-2-methylbenzamide], for which, in the assay on Vasopressin V2 (10 mg/kg P.O.), the Osmolality was 1070 mOsm/kg and the “Urine Volume” value was found to be 4 ml/4 hours. Moreover, in the assay on Vasopressin V1 (20 mg/kg iv), the “Time (Min) of Max. % Inhibition” value was 120 min and the inhibition in vivo at 20 mg/kg was determined as 67%. For the same compound, at oxytocin receptors, the IC50 amounted to 0.51 µM and testing at 10 µM gave an inhibition of 97%.
Turning to `O=C(Nc1ccc(C(=O)N2CCCCc3sc(Cl)cc32)cc1)c1c(Cl)cccc1Cl` [Example 95, N-[4-[(2-Chloro-5,6,7,8-tetrahydro-4H-thieno[3,2-b]azepin-4-yl)carbonyl]phenyl]-2,6-dichlorobenzamide], in the assay on Vasopressin V2 (10 mg/kg P.O.), the Osmolality was found to be 1122 mOsm/kg and the “Urine Volume” value was found to be 5 ml/4 hours. Besides, in the assay on Vasopressin V1 (10 mg/kg iv), the “Time (Min) of Max. % Inhibition” value is 30 min and the inhibition in vivo at 10 mg/kg was 61%. On oxytocin receptors, this compound registered a half-maximal inhibitory concentration (IC50) of 1.38 µM and an inhibition at 10 µM of 85%.
Turning to `O=C(Nc1ccc(C(=O)N2CCCCc3sccc32)c(Cl)c1)c1ccc(F)cc1Cl` [Example 183], in the assay with Vasopressin V2 (10 mg/kg P.O.), the Osmolality is on record as 512 mOsm/kg and the “Urine Volume” value came out at 8.3 ml/4 hours. In the assay on Vasopressin V1 (30 mg/kg iv), the “Time (Min) of Max. % Inhibition” value was found to be 120 min and the inhibition in vivo at 30 mg/kg is 78%. Also, at oxytocin receptors, the 50% inhibitory concentration (IC50) came to 0.6 µM and the inhibition at 10 µM was 86%.
With `O=C(Nc1ccc(C(=O)N2CCCC(=O)c3sccc32)cc1)c1ccc(Cl)cc1Cl` [Example 156, N-[4-[(5,6,7,8-Tetrahydro-8-oxo-4H-thieno[3,2-b]azepin-4-yl)carbonyl]-phenyl]-2,4-dichlorobenzamide], in the assay on Vasopressin V2 (10 mg/kg P.O.), the Osmolality was found to be 1266 mOsm/kg and the “Urine Volume” value is reported as 3.8 ml/4 hours. Moreover, in the assay with Vasopressin V1 (20 mg/kg iv), the “Time (Min) of Max. % Inhibition” value worked out at 240 min and the inhibition in vivo at 20 mg/kg is 63%. On oxytocin receptors, this compound came in with an inhibition at 10 µM of 0%.
For the compound `Cc1ccccc1CC(=O)Nc1ccc(C(=O)N2CCCCc3sccc32)cc1` [Example 13, N-[4-[(5,6,7,8-Tetrahydro-4H-thieno[3,2-b]azepin-4-yl)carbonyl]phenyl]2-methylbenzeneacetamide], in the assay on Vasopressin V2 (30 mg/kg P.O.), the Osmolality is listed as 516 mOsm/kg and the “Urine Volume” value is listed as 9.5 ml/4 hours. For the same compound, in the assay with Vasopressin V1 (10 mg/kg iv), the “Time (Min) of Max. % Inhibition” value is 60 min and the inhibition in vivo at 10 mg/kg is 80%. On oxytocin receptors, this compound displayed an IC50 of 0.68 µM and an inhibition at 10 µM of 95%.
Consider `O=C(Nc1ccc(C(=O)N2CCCCc3sc(Cl)cc32)cc1)c1ccc(Cl)cc1Cl` [Example 93, 2,4-Dichloro-N-[4-[(2-chloro-5,6,7,8-tetrahydro-4H-thieno[3,2-b]azepin-4-yl)carbonyl]phenyl]benzamide], for which, in the assay with Vasopressin V2 (10 mg/kg P.O.), the Osmolality is 1056 mOsm/kg and the “Urine Volume” value was 7.6 ml/4 hours. In addition, in the assay on Vasopressin V1 (20 mg/kg iv), the “Time (Min) of Max. % Inhibition” value amounted to 90 min and the inhibition in vivo at 20 mg/kg amounted to 77%. At oxytocin receptors, this compound displayed an IC50 of 1.8 µM and an inhibition at 10 µM of 83%.
Take `Cc1c(F)cccc1C(=O)Nc1ccc(C(=O)N2CCCCc3sc(Cl)cc32)cc1` [Example 94, N-[4-[(2-Chloro-5,6,7,8-tetrahydro-4H-thieno[3,2-b]azepin-4-yl)carbonyl]phenyl]-3-fluoro-2-methylbenzamide]: in the assay on Vasopressin V2 (10 mg/kg P.O.), the Osmolality is 910 mOsm/kg and the “Urine Volume” value is recorded as 8.8 ml/4 hours. Also, in the assay with Vasopressin V1 (20 mg/kg iv), the “Time (Min) of Max. % Inhibition” value was found to be 90 min and the inhibition in vivo at 20 mg/kg was 74%. Moreover, on oxytocin receptors, the half-maximal inhibitory concentration (IC50) worked out at 0.95 µM and testing at 10 µM gave an inhibition of 97%.
As to `O=C(Nc1ccc(C(=O)N2CCCCc3sccc32)c(Cl)c1)c1ccc(Cl)cc1Cl` [Example 68, N-[4-[(5,6,7,8-Tetrahydro-4H-thieno[3,2-b]azepin-4-yl)carbonyl]-3-chlorophenyl]-2,4-dichlorobenzamide], in the assay on Vasopressin V2 (10 mg/kg P.O.), the Osmolality came out at 647 mOsm/kg and the “Urine Volume” value stood at 10.3 ml/4 hours. Also, in the assay with Vasopressin V1 (20 mg/kg iv), the “Time (Min) of Max. % Inhibition” value is 120 min and the inhibition in vivo at 20 mg/kg turned out to be 50%. The inhibition at 10 µM on oxytocin receptors is 55%.
`O=C(Nc1ccc(C(=O)N2CCCCc3sccc32)cc1)c1cc(Cl)ccc1Cl` [Example 9, N-[4-[(5,6,7,8-Tetrahydro-4H-thieno[3,2-b]azepin-4-yl)carbonyl]phenyl]2,5-dichlorobenzamide]: in the assay with Vasopressin V1 (30 mg/kg po), the “Time (Min) of Max. % Inhibition” value came to 180 min and the inhibition in vivo at 30 mg/kg was 17%. Also, on oxytocin receptors, the half-maximal inhibitory concentration (IC50) amounted to 5.2 µM and the inhibition at 10 µM turned out to be 60%.
`Cc1ccccc1C(=O)Nc1ccc(C(=O)N2CCCC(=O)c3sccc32)cc1` [Example 157, N-[4-[(5,6,7,8-Tetrahydro-8-oxo-4H-thieno[3,2-b]azepin-4-yl)carbonyl]-phenyl]-2-methylbenzamide]: in the assay with Vasopressin V2 (10 mg/kg P.O.), the Osmolality is listed as 1070 mOsm/kg and the “Urine Volume” value came out at 6.5 ml/4 hours. In addition, in the assay on Vasopressin V1 (20 mg/kg iv), the “Time (Min) of Max. % Inhibition” value worked out at 60 min and the inhibition in vivo at 20 mg/kg came out at 66%. The compound also had an inhibition at 10 µM at oxytocin receptors of 29%.

The record behind these values is patent US5696112A, “Fused heterocyclic azepines as vasopressin antagonists” (American Cyanamid Company, priority 1995, dated 1997).
